Measured values: ChEMBL document CHEMBL4406913, “INCB050465 (Parsaclisib), a Novel Next-Generation Inhibitor of Phosphoinositide 3-Kinase Delta (PI3Kδ)” (ACS Med Chem Lett, 2019)
Activity calls are given as the source filed them. No cut-off for these calls is given here.

Assays:
SU-DHL-6 = test: Cytotoxicity against human SUDHL6 cells assessed as reduction in cell viability incubated for 4 days by celltiter glo luminescent assay; format: functional, cell-based; settings: SU-DHL-6, 96 h
Pfeiffer [1] = test: Cytotoxicity against human Pfeiffer cells assessed as reduction in cell viability incubated for 4 days by [3H]-thymidine incorporation based liquid scintillation counter method; format: functional
[2] = biological target: T1, Phosphatidylinositol 4,5-bisphosphate 3-kinase catalytic subunit delta isoform (Homo sapiens, UniProt O00329)
T1 sequence (O00329 whole entry): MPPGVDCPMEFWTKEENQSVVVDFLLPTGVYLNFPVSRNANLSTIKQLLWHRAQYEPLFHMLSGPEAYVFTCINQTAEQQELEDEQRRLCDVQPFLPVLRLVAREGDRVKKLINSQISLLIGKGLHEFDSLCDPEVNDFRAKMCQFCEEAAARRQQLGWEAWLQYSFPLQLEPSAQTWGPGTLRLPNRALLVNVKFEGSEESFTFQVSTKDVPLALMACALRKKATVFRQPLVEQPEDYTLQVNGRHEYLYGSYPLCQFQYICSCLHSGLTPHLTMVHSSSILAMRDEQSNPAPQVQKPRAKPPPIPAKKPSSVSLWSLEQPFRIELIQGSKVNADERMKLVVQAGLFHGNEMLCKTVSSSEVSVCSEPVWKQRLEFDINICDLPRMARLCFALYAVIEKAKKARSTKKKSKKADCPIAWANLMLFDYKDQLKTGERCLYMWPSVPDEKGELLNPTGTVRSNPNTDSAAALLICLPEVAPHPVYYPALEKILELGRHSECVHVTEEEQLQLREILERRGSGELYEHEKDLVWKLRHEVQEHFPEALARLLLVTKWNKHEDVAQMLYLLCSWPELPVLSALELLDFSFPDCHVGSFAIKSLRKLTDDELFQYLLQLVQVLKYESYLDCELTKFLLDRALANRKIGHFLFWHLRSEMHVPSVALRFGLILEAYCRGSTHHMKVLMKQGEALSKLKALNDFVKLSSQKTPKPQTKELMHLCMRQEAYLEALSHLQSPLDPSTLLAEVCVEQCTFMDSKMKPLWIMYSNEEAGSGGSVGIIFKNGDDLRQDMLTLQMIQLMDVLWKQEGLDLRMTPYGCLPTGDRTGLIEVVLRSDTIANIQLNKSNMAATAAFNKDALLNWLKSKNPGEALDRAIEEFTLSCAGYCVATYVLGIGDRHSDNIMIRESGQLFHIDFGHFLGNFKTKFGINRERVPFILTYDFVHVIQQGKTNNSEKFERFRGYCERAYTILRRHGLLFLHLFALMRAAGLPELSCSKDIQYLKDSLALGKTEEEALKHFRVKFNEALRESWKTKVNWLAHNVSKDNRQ
Description: (§1) Inhibition of PI3Kdelta (unknown origin) using D-myophosphatidylinositol 4,5-bisphosphate as substrate incubated for 120 mins by [gamma-33P]ATP based SPA assay

Pfeiffer [3] = test: Cytotoxicity against human Pfeiffer cells assessed as reduction in protein binding adjusted cell viability incubated for 4 days by [3H]-thymidine incorporation based liquid scintillation counter method; format: functional
[4] = Fractional unbound in human plasma; format: ADME, cell-free
[5] = Permeability across apical to basolateral side in human Caco2 cells at 50 uM incubated for 120 mins by LC/MS analysis; format: ADME, cell-based; settings: Caco-2, read-out: permeability
[6] = biological target: Voltage-gated inwardly rectifying potassium channel KCNH2 (Homo sapiens, UniProt Q12809); test: Inhibition of human ERG channel at 30 uM incubated for 24 hrs in presence of [3H] Dofetilide by filter binding assay based scintillation counting analysis
Voltage-gated inwardly rectifying potassium channel KCNH2, sequence (Q12809 whole entry): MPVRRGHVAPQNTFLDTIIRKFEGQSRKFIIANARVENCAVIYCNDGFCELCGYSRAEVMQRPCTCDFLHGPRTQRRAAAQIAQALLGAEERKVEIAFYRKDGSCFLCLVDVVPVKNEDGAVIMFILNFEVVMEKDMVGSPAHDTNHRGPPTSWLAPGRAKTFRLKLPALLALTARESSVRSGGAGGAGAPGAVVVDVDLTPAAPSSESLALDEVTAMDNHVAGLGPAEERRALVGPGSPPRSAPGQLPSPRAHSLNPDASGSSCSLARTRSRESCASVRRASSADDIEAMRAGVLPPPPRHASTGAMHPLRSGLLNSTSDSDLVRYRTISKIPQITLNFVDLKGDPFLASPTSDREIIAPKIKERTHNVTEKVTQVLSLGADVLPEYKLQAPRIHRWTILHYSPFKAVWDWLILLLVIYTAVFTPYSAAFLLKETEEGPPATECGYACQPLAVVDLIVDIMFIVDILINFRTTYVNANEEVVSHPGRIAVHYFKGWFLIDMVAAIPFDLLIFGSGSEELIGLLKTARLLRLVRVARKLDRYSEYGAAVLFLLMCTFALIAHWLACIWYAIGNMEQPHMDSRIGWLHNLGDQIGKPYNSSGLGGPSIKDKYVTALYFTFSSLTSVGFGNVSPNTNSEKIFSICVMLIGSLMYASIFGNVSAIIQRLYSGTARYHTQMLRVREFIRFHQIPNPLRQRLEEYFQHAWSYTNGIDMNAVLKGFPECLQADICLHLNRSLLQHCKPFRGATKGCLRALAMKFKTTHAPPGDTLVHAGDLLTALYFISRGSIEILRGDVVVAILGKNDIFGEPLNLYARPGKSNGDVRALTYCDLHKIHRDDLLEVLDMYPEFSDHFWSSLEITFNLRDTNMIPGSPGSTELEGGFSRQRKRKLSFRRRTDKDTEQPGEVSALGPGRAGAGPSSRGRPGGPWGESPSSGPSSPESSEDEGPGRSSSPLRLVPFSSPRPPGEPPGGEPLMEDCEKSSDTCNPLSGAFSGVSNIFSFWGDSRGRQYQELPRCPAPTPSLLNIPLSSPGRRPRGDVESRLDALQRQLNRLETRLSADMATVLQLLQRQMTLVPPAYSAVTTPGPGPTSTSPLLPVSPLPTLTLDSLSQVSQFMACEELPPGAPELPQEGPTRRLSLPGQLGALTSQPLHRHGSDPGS

[7] = Intrinsic clearance in human liver microsomes at 1 uM measured upto 30 mins by LC/MS analysis; format: ADME, Microsome; settings: read-out: CLH (converted)
[8] = biological target: T2, Phosphatidylinositol 4,5-bisphosphate 3-kinase catalytic subunit delta isoform (Homo sapiens) (UniProt O00329)
T2 sequence (whole entry): T1 sequence (O00329 whole entry)
Description: as §1

[9] = AUC in rat at 5 mg/kg, po measured for 24 hrs by LC/MS/MS analysis; format: ADME, organism-based; settings: in vivo
[10] = AUC in cynomolgus monkey at 10 mg/kg, po measured for 24 hrs by LC/MS/MS analysis; format: ADME, organism-based, Macaca fascicularis; settings: in vivo
[11] = Half life in cynomolgus monkey at 10 mg/kg, po measured for 24 hrs by LC/MS/MS analysis; format: ADME, organism-based, Macaca fascicularis; settings: in vivo
[12] = AUC in cynomolgus monkey at 1 mg/kg, po measured for 24 hrs by LC/MS/MS analysis; format: ADME, organism-based, Macaca fascicularis; settings: in vivo
[13] = Toxicity in dog assessed as testicular lesions observed on day 28; design: species or system Canis lupus familiaris; settings: in vivo
[14] = Toxicity in Beagle dog; design: species or system Canis lupus familiaris; settings: in vivo
[15] = AUC in rat at 4 mg/kg, po measured for 24 hrs by LC/MS/MS analysis; format: ADME, organism-based; settings: in vivo
HEK293 = test: Cytotoxicity against human HEK293 cells assessed as reduction in cell viability at 20 uM incubated for 72 hrs by celltiter glo luminescent assay; format: cell-based; settings: hek293, 72 h
[16] = Half life in cynomolgus monkey at 2 mg/kg, po measured for 24 hrs by LC/MS/MS analysis; format: ADME, organism-based, Macaca fascicularis; settings: in vivo
[17] = AUC in cynomolgus monkey at 2 mg/kg, po measured for 24 hrs by LC/MS/MS analysis; format: ADME, organism-based, Macaca fascicularis; settings: in vivo

Row | SMILES | IC50 (SU-DHL-6) [nM] | IC50 (Pfeiffer [1]) [nM] | IC50 [2] [nM] | IC50 (Pfeiffer [3]) [nM] | fraction unbound [4] | further results
1 | Cc1c(Cl)cc(C(C)Nc2ncnc3[nH]cnc23)c(-c2cccc(F)c2)c1-c1cnn(C)c1 (racemic) | 60 | 8.7 | 5.3 |  |  | 
2 | COc1c([C@H](C)Nc2ncnc3[nH]cnc23)cc(Cl)c(C)c1-c1cnn(C)c1 | 100 | 120 | 2.8 | 950 | 0.029 | 
3 | COc1c([C@H](C)n2nc(C)c3c(N)ncnc32)cc(Cl)c(C)c1C1CNC(=O)C1 (stereo partly drawn) | 13 | 51 | 2.4 | 480 | 0.1 | Papp A→B at 2 h, 50 µM [5]: 2.8 ×10⁻⁶ cm/s; inhibition (INH) [6]: Not Active; CLint scaled at 1 µM [7]: 11.7 mL/min/kg; inhibition [8]: inactive
4 | COc1c([C@H](C)Nc2ncnc3[nH]cnc23)cc(Cl)c(C)c1-c1cncc(S(C)(=O)=O)c1 | 14 | 9.5 | 1.7 | 40 | 0.12 | AUC at 24 h [9]: 3 µM·h; Papp A→B at 2 h, 50 µM [5]: 0.5 ×10⁻⁶ cm/s
5 | Cc1csc2nc([C@H](C)Nc3ncnc4[nH]cnc34)c(-c3cccc(F)c3)c(=O)n12 [DEZAPELISIB] | 18 | 14 |  | 66 | 0.17 | AUC at 24 h [10]: 4.9 µM·h; half-life [11]: 78 min; AUC at 24 h [9]: 4.4 µM·h
6 | CC(Nc1ncnc2[nH]cnc12)c1ccc2cccnc2c1-c1cccc(F)c1 (racemic) | 1800 | 490 | 430 | 3200 | 0.1 | 
7 | COc1c([C@H](C)n2nc(C)c3c(N)ncnc32)cc(Cl)c(C)c1-c1ccnc(C(=O)N(C)C)c1 | 7.4 | 8.6 | 0.93 | 61 | 0.089 | 
8 | Cc1c(Cl)cc(C(C)Nc2ncnc3[nH]cnc23)c(-c2cccc(F)c2)c1C#N (racemic) | 1300 | 660 |  |  | 0.0064 | 
9 | COc1c([C@H](C)n2nc(C)c3c(N)ncnc32)cc(Cl)c(C#N)c1C1CN(C[C@H](C)O)C1 | 2.4 | 1.5 | 1.9 | 3.6 | 0.42 | AUC at 24 h [9]: 6.8 µM·h; inhibition (INH) [6]: Active; AUC at 24 h [12]: 4.1 µM·h; Activity [13]: Toxic
10 | C[C@H](Nc1ncnc2[nH]cnc12)c1cc(Cl)c2cccnc2c1-c1cccc(F)c1 | 140 | 50 | 8.4 | 1000 | 0.014 | 
11 | C[C@H](Nc1ncnc2[nH]cnc12)c1cc(Cl)c2ccnnc2c1-c1cccc(F)c1 | 73 | 26 |  | 270 | 0.059 | AUC at 24 h [9]: 13 µM·h; Activity [14]: Toxic
12 | COc1c([C@H](C)Nc2ncnc(N)c2C#N)cc(Cl)c(C)c1-c1ccc(C(=O)N(C)C)cn1 | 21 | 17 | 1.8 | 61 | 0.22 | AUC at 24 h [15]: 7.7 µM·h; Activity (HEK293): Non-Toxic; inhibition (INH) [6]: Not Active; half-life [16]: 12 min; AUC at 24 h [17]: 0.2 µM·h
13 | COc1c(C(C)n2ncc3c(N)ncnc32)cc(Cl)c(C)c1-c1ccnc(C(=O)N(C)C)c1 (racemic) | 840 | 610 | 120 | 4500 | 0.092 | 
14 | COc1c(C(C)n2nc(C)c3c(N)ncnc32)cc(Cl)c(C)c1C1CCN(C)CC1 (racemic) | 44 | 11 | 11 | 53 | 0.19 | 
15 | CCOc1c([C@H](C)n2nc(C)c3c(N)ncnc32)cc(Cl)c(C#N)c1C1CNC(=O)C1 (stereo partly drawn) | 0.47 | 1.7 | < 1 | 4.1 | 0.23 | Papp A→B at 2 h, 50 µM [5]: 0.3 ×10⁻⁶ cm/s; CLint scaled at 1 µM [7]: 11.7 mL/min/kg; inhibition [8]: inactive
16 | COc1c([C@H](C)Nc2ncnc3[nH]cnc23)cc(Cl)c(C)c1-c1ccc(S(C)(=O)=O)cc1 | 170 | 130 |  | 3100 | 0.013 | 
17 | COc1c([C@H](C)Nc2ncnc(N)c2C#N)cc(Cl)c(C)c1-c1cncc(S(C)(=O)=O)c1 | 3.1 | 3.4 | 0.99 | 17 | 0.14 | Papp A→B at 2 h, 50 µM [5]: 7.9 ×10⁻⁶ cm/s; AUC at 24 h [15]: 10 µM·h; Activity (HEK293): Toxic; inhibition (INH) [6]: Active
18 | CCOc1c([C@H](C)n2nc(C)c3c(N)ncnc32)cc(Cl)c(C)c1C1CNC(=O)C1 (stereo partly drawn) | 2.1 | 4.8 | 1.4 | 47 | 0.065 | Papp A→B at 2 h, 50 µM [5]: 1.9 ×10⁻⁶ cm/s; CLint scaled at 1 µM [7]: 11.7 mL/min/kg; inhibition [8]: inactive
